Test results as given in patent publication US20140287918A1, “USE OF PEUMUS BOLDUS EXTRACT OBTAINED BY MEANS OF IN VIVO CULTURE AND HAVING ANTI-BOTRYTIS, ALLELOPATHIC AND ANTIOXIDANT ACTIVITY” (UNIVERSIDAD DE SANTIAGO DE CHILE, priority 2011, published 2014).
Converted amounts (≈) assume the structure as drawn.

Test: antioxidant capacity (scavenging of free radical DPPH)
Conditions: main component of the extract
Description: The extract was obtained by sonication in ethanol 85% at a ratio of 1 g of tissue in 10 volumes of solvent.

EC50 (antioxidant capacity): 0.17 mg/mL (≈ 858 µM)
Compound: COc1cc(C(=O)O)cc(OC)c1O [syringic acid]
